The supplement of paper PMC10307832

How the values were obtained:
Assay in all cases: relative viability (nuclei count vs DMSO), 5 days (fraction); higher = more cells survive
[1] = compound: CCC1=CN=CN=C1N2CCN(CC2)CC3=NC4=C(N3)C=C(C=C4)C(F)(F)F + CC(=O)Nc1cccc(-n2c(=O)n(C3CC3)c(=O)c3c(Nc4ccc(I)cc4F)n(C)c(=O)c(C)c32)c1 [Trametinib] (partner 0.02 µM)
In short: (§1)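 Each reported value is a median over duplicate plates. It expresses relative viability: treated-well nuclei count divided by vehicle-well nuclei count. Lung cancer cell lines in 1536-well plates were dosed by pin tool a day after seeding, alone with one drug or with a fixed anchor-drug dose plus five library-drug doses (not always all listed) in √10 steps, and nuclei were counted after 5 days.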

[2] = compound: CCC1=CN=CN=C1N2CCN(CC2)CC3=NC4=C(N3)C=C(C=C4)C(F)(F)F + COc1cccc2cc(-c3nc([C@H]4CC[C@H](C(=O)O)CC4)n4ncnc(N)c34)[nH]c12 [OSI-027] (partner 0.5 µM)
In short: as §1

Mirin + Linsitinib = compound: N=C1NC(=O)/C(=C/c2ccc(O)cc2)S1 [Mirin] + C[C@]1(O)C[C@@H](c2nc(-c3ccc4ccc(-c5ccccc5)nc4c3)c3c(N)nccn32)C1 [Linsitinib] (partner 1 µM)
In short: as §1

Mirin + Tozasertib = compound: N=C1NC(=O)/C(=C/c2ccc(O)cc2)S1 [Mirin] + Cc1cc(Nc2cc(N3CCN(C)CC3)nc(Sc3ccc(NC(=O)C4CC4)cc3)n2)n[nH]1 [Tozasertib] (partner 0.1 µM)
In short: as §1

Cell Line	relative viability ([1]; first compound 0.04 µM)	relative viability ([1]; first compound 0.1265 µM)	relative viability ([1]; first compound 0.4 µM)	relative viability ([1]; first compound 1.265 µM)	relative viability ([1]; first compound 4 µM)	relative viability ([2]; first compound 0.04 µM)	relative viability ([2]; first compound 0.1265 µM)	relative viability ([2]; first compound 0.4 µM)	relative viability ([2]; first compound 1.265 µM)	relative viability ([2]; first compound 4 µM)	relative viability (Mirin + Linsitinib; first compound 0.25 µM)	relative viability (Mirin + Linsitinib; first compound 0.7906 µM)	relative viability (Mirin + Linsitinib; first compound 2.5 µM)	relative viability (Mirin + Linsitinib; first compound 7.906 µM)	relative viability (Mirin + Linsitinib; first compound 25 µM)	relative viability (Mirin + Tozasertib; first compound 0.25 µM)	relative viability (Mirin + Tozasertib; first compound 0.7906 µM)	relative viability (Mirin + Tozasertib; first compound 2.5 µM)	relative viability (Mirin + Tozasertib; first compound 7.906 µM)	relative viability (Mirin + Tozasertib; first compound 25 µM)
201T	0.725	0.73	0.747	0.711	0.694	0.737	0.752	0.748	0.664	0.747	1	1.04	1.01	1.02	1.09	0.929	0.982	0.88	0.881	0.599
A549	–	–	–	–	–	–	–	–	–	–	0.508	0.58	0.544	0.503	0.511	–	–	–	–	–
A-427	0.631	0.731	0.675	0.615	0.637	0.432	0.476	0.413	0.434	0.417	1.11	–	1.19	1.19	1.2	0.196	–	0.202	0.143	0.158
ABC-1	–	–	–	–	–	0.492	0.416	0.351	0.507	0.555	0.771	0.93	0.773	1.04	0.455	0.167	0.235	0.197	0.223	0.193
BEN	1.09	1.18	0.975	0.742	0.709	0.299	0.276	0.317	0.223	0.256	0.821	1.37	0.973	0.809	0.502	0.438	0.584	0.523	0.553	0.456
CAL-12T	0.256	0.352	0.356	0.267	0.37	0.481	0.691	0.545	0.577	0.627	0.856	0.726	0.825	0.856	0.838	0.282	–	0.317	0.283	0.222
COR-L23	0.569	0.682	0.524	0.47	0.583	0.777	0.783	0.605	0.635	0.7	1.01	1.16	1.02	0.955	0.892	0.162	0.213	0.17	0.15	0.132
COR-L 105	0.42	0.418	0.501	0.416	0.44	0.609	0.616	0.6	0.468	0.744	0.984	1.02	1.13	1.09	0.846	0.341	0.384	0.343	0.401	0.309
Calu-6	–	–	–	–	–	–	–	–	–	–	0.914	0.908	0.903	0.856	0.88	–	–	–	–	–
ChaGo-K-1	0.93	0.894	0.821	0.869	0.859	0.542	0.564	0.513	0.559	0.52	–	–	–	–	–	0.234	0.222	0.241	0.215	0.171
EBC-1	–	–	–	–	–	–	–	–	–	–	1.06	1.07	0.872	0.875	0.974	–	–	–	–	–
EKVX	0.415	0.384	0.379	0.32	0.309	0.615	0.73	0.705	–	0.717	1.11	0.959	1.03	0.933	1	0.397	0.323	0.368	0.322	0.345
EMC-BAC-2	–	0.857	0.841	0.891	0.951	0.37	0.37	0.386	–	0.375	0.793	0.825	0.883	0.853	0.815	0.274	0.28	0.284	0.228	0.162
EPLC-272H	0.289	0.26	0.32	0.284	0.325	0.255	0.302	0.264	0.308	0.276	1.1	–	1.16	0.978	0.831	0.267	–	0.262	0.127	0.15
H3255	0.639	0.583	0.572	0.522	0.599	0.559	0.633	0.515	0.566	0.552	0.9	0.886	0.972	0.954	0.97	0.677	0.639	0.698	0.555	0.602
HARA	0.879	0.76	0.454	0.472	0.716	0.317	0.456	0.392	–	0.529	0.935	0.994	0.988	1.02	0.738	0.126	–	0.107	0.0865	0.0791
